# Source: publication PMC5843908, “Detection of PRMT1 inhibitors with stopped flow fluorescence” (Signal Transduction and Targeted Therapy, 2018)
# Like-named read-outs stand apart in the source and are kept apart here.
# Tests used:
# PRMT1 [1] = target: T1, PRMT1 (Homo sapiens, UniProt Q99873)
# From the text: We plotted the values of a · k1 or −b · k2 against the SAM concentration (Fig. 3c, d).
# (§1) In a stopped flow fluorescence assay, the binding of H4FL to PRMT1 (or the PRMT1—cofactor complex) quenches the peptide fluorescence, while release of the peptide restores the fluorescence. […] The widths of the entrance and exit slits of the monochromator were set to 0.5 mm. An equal volume of samples from two syringes was driven into the observation cell for mixing measurements. The H4FL concentration in all experiments was 0.4 μM. […] The fluorescent signal was recorded for 900 seconds, with 10,000 data points in total. Data from four to six drives were collected and averaged for each curve.
# After averaging the shot data, the association time courses were fitted to a double-exponential function (equation 2) using GraphPad Prism (CA, USA). […] F is the fluorescence intensity at time t, k1, and k2 are the rate constants for Phase I and Phase II, a is the amplitude of the fluorescence change for k1, and b is the amplitude of the fluorescence change for k2. Simulation curves based on the values of a, b, k1, and k2 at fixed c = 1 were produced using Matlab.
# PRMT1 [2] = conditions: read-out: Km of SAM on H4FL; cited from earlier work
# PRMT1 [3] = target: T1, PRMT1; assay: Stopped flow fluorescence assay of PRMT1 inhibition ([PRMT1] 0.2 µM, [SAM] 3.5 µM, [H4FL] 0.4 µM); type: biochemical;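 further: Stopped-flow traces of fluorescent H4FL peptide quenched on binding PRMT1 and restored on release, recorded 900 s, averaged over repeated drives and fit to a double-exponential model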
# From the text: To obtain the IC50 of a specific inhibitor, the relative activities of the enzyme in presence of different concentrations of the inhibitor are required (equation 1).[37] […] By adding different concentrations of the inhibitor to the reaction mixture, the relative activity of the enzyme can be obtained by normalizing K to the reaction rate without the inhibitor, and then calculate the IC50 value using equation 1. In our stopped flow fluorescence assay, the reaction rate of Phase I and Phase II can be obtained by approximating and deriving the double-exponential equation (equation 2). In Phase I, during a very short period of time (where t is small), the curve is nearly linear, and the exponential equation can be approximately described as F1 = a · (−k1) · t. Therefore, the derivation of F1 equals –k1∙a, which is the slope of Phase I. Similarly, the curve of Phase II at early stage can be approximately described as F2 = b · (−k2) · t. This derivation of F2 equals –k2∙b, which is the slope of Phase II. The slopes at various inhibitor concentrations, normalized to the slope in the absence of inhibitor, can be used to obtain the corresponding relative enzyme activity from which the potency value (IC50) of the inhibitor can be calculated with equation 1.
# as §1
# After averaging the shot data, the association time courses were fitted to a double-exponential function (equation 2) using GraphPad Prism (CA, USA). […] F is the fluorescence intensity at time t, k1, and k2 are the rate constants for Phase I and Phase II, a is the amplitude of the fluorescence change for k1, and b is the amplitude of the fluorescence change for k2. Simulation curves based on the values of a, b, k1, and k2 at fixed c = 1 were produced using Matlab. The IC50 value of inhibitors is determined by equation 1 using GraphPad Prism (CA, USA).
# T1 sequence (Q99873 29-371): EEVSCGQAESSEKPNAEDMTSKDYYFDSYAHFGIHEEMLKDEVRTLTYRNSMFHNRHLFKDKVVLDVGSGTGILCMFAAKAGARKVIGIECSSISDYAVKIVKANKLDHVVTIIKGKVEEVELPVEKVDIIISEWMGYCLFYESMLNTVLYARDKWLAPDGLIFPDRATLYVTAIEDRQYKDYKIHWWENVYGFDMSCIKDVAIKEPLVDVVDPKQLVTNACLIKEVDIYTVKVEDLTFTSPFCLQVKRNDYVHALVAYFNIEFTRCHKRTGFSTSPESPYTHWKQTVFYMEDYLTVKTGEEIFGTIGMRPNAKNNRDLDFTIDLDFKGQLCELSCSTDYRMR
smiles,measurement,setting,value
"C[S+](CC[C@H](N)C(=O)[O-])C[C@H]1O[C@@H](n2cnc3c(N)ncnc32)[C@H](O)[C@@H]1O (stereo partly shown) [SAM, S-adenosylmethionine]",-b·k2 (slope of Phase II),PRMT1 [1]; [SAM] 1.5 µM,0.0002 ± 9.72e-07 s⁻¹
same,"a (amplitude, Phase I)",PRMT1 [1]; [SAM] 1.5 µM,0.0482 ± 2.31E-04
same,a·k1 (slope of Phase I),PRMT1 [1]; [SAM] 1.5 µM,0.00212 ± 2.2e-05 s⁻¹
same,"b (amplitude, Phase II)",PRMT1 [1]; [SAM] 1.5 µM,-0.07363 ± 8.97E-05
same,"k1 (rate constant, Phase I)",PRMT1 [1]; [SAM] 1.5 µM,0.04402 ± 4.06E-04 s^-1
same,"k2 (rate constant, Phase II)",PRMT1 [1]; [SAM] 1.5 µM,0.002713 ± 1.28E-05 s^-1
same,-b·k2 (slope of Phase II),PRMT1 [1]; [SAM] 3.5 µM,0.000878 ± 2.58e-06 s⁻¹
same,"a (amplitude, Phase I)",PRMT1 [1]; [SAM] 3.5 µM,0.0846 ± 3.83E-04
same,a·k1 (slope of Phase I),PRMT1 [1]; [SAM] 3.5 µM,0.00678 ± 6.58e-05 s⁻¹
same,"b (amplitude, Phase II)",PRMT1 [1]; [SAM] 3.5 µM,-0.1161 ± 2.14E-04
same,"k1 (rate constant, Phase I)",PRMT1 [1]; [SAM] 3.5 µM,0.08016 ± 6.88E-04 s^-1
same,"k2 (rate constant, Phase II)",PRMT1 [1]; [SAM] 3.5 µM,0.007565 ± 1.73E-05 s^-1
same,-b·k2 (slope of Phase II),PRMT1 [1]; [SAM] 7.5 µM,0.00141 ± 4.46e-06 s⁻¹
same,"a (amplitude, Phase I)",PRMT1 [1]; [SAM] 7.5 µM,0.1529 ± 1.79E-03
same,a·k1 (slope of Phase I),PRMT1 [1]; [SAM] 7.5 µM,0.0272 ± 0.000547 s⁻¹
same,"b (amplitude, Phase II)",PRMT1 [1]; [SAM] 7.5 µM,-0.2054 ± 3.40E-04
same,"k1 (rate constant, Phase I)",PRMT1 [1]; [SAM] 7.5 µM,0.1778 ± 2.91E-03 s^-1
same,"k2 (rate constant, Phase II)",PRMT1 [1]; [SAM] 7.5 µM,0.006848 ± 1.85E-05 s^-1
same,-b·k2 (slope of Phase II),PRMT1 [1]; [SAM] 15 µM,0.00313 ± 1.01e-05 s⁻¹
same,"a (amplitude, Phase I)",PRMT1 [1]; [SAM] 15 µM,0.1992 ± 2.65E-03
same,a·k1 (slope of Phase I),PRMT1 [1]; [SAM] 15 µM,0.0493 ± 0.00109 s⁻¹
same,"b (amplitude, Phase II)",PRMT1 [1]; [SAM] 15 µM,-0.2664 ± 5.21E-04
same,"k1 (rate constant, Phase I)",PRMT1 [1]; [SAM] 15 µM,0.2476 ± 4.40E-03 s^-1
same,"k2 (rate constant, Phase II)",PRMT1 [1]; [SAM] 15 µM,0.01175 ± 3.03E-05 s^-1
same,Km,PRMT1 [2],3.1 ± 0.46 µM
Nc1ncnc2c1ncn2[C@@H]1O[C@H](C[C@@H](N)CC[C@H](N)C(=O)O)[C@@H](O)[C@H]1O [sinefungin],-b·k2 (slope of Phase II),PRMT1 [3]; [sinefungin] 0.0375 µM,0.000574 ± 1.23e-06 s⁻¹
same,"a (amplitude, Phase I)",PRMT1 [3]; [sinefungin] 0.0375 µM,0.1645 ± 3.77E-04
same,a·k1 (slope of Phase I),PRMT1 [3]; [sinefungin] 0.0375 µM,0.0107 ± 4.96e-05 s⁻¹
same,"b (amplitude, Phase II)",PRMT1 [3]; [sinefungin] 0.0375 µM,-0.1699 ± 1.17E-04
same,"k1 (rate constant, Phase I)",PRMT1 [3]; [sinefungin] 0.0375 µM,0.0653 ± 2.62E-04 s^-1
same,"k2 (rate constant, Phase II)",PRMT1 [3]; [sinefungin] 0.0375 µM,0.00338 ± 6.86e-06 s⁻¹
same,-b·k2 (slope of Phase II),PRMT1 [3]; [sinefungin] 0.075 µM,0.00042 ± 1.32e-06 s⁻¹
same,"a (amplitude, Phase I)",PRMT1 [3]; [sinefungin] 0.075 µM,0.2064 ± 3.83E-04
same,a·k1 (slope of Phase I),PRMT1 [3]; [sinefungin] 0.075 µM,0.0115 ± 4.27e-05 s⁻¹
same,"b (amplitude, Phase II)",PRMT1 [3]; [sinefungin] 0.075 µM,-0.2170 ± 1.94E-04
same,"k1 (rate constant, Phase I)",PRMT1 [3]; [sinefungin] 0.075 µM,0.05564 ± 1.79E-04 s^-1
same,"k2 (rate constant, Phase II)",PRMT1 [3]; [sinefungin] 0.075 µM,0.00194 ± 5.83e-06 s⁻¹
same,-b·k2 (slope of Phase II),PRMT1 [3]; [sinefungin] 0.15 µM,0.000351 ± 1.48e-06 s⁻¹
same,"a (amplitude, Phase I)",PRMT1 [3]; [sinefungin] 0.15 µM,0.2215 ± 4.17E-04
same,a·k1 (slope of Phase I),PRMT1 [3]; [sinefungin] 0.15 µM,0.0126 ± 4.69e-05 s⁻¹
same,"b (amplitude, Phase II)",PRMT1 [3]; [sinefungin] 0.15 µM,-0.2165 ± 3.17E-04
same,"k1 (rate constant, Phase I)",PRMT1 [3]; [sinefungin] 0.15 µM,0.05703 ± 1.83E-04 s^-1
same,"k2 (rate constant, Phase II)",PRMT1 [3]; [sinefungin] 0.15 µM,0.00162 ± 6.43e-06 s⁻¹
same,-b·k2 (slope of Phase II),PRMT1 [3]; [sinefungin] 0.3 µM,0.00021 ± 1.94e-06 s⁻¹
same,"a (amplitude, Phase I)",PRMT1 [3]; [sinefungin] 0.3 µM,0.2200 ± 4.51E-04
same,a·k1 (slope of Phase I),PRMT1 [3]; [sinefungin] 0.3 µM,0.0118 ± 4.79e-05 s⁻¹
same,"b (amplitude, Phase II)",PRMT1 [3]; [sinefungin] 0.3 µM,-0.1711 ± 6.89E-04
same,"k1 (rate constant, Phase I)",PRMT1 [3]; [sinefungin] 0.3 µM,0.05374 ± 1.88E-04 s^-1
same,"k2 (rate constant, Phase II)",PRMT1 [3]; [sinefungin] 0.3 µM,0.00123 ± 1.02e-05 s⁻¹
same,-b·k2 (slope of Phase II),PRMT1 [3]; [sinefungin] 0.75 µM,0.000123 ± 2.15e-06 s⁻¹
same,"a (amplitude, Phase I)",PRMT1 [3]; [sinefungin] 0.75 µM,0.2668 ± 5.02E-04
same,a·k1 (slope of Phase I),PRMT1 [3]; [sinefungin] 0.75 µM,0.0149 ± 5.48e-05 s⁻¹
same,"b (amplitude, Phase II)",PRMT1 [3]; [sinefungin] 0.75 µM,-0.1045 ± 8.19E-04
same,"k1 (rate constant, Phase I)",PRMT1 [3]; [sinefungin] 0.75 µM,0.05576 ± 1.77E-04 s^-1
same,"k2 (rate constant, Phase II)",PRMT1 [3]; [sinefungin] 0.75 µM,0.00118 ± 1.83e-05 s⁻¹
same,-b·k2 (slope of Phase II),PRMT1 [3]; [sinefungin] 1.5 µM,7.22e-05 ± 5.34e-06 s⁻¹
same,"a (amplitude, Phase I)",PRMT1 [3]; [sinefungin] 1.5 µM,0.287 ± 5.51E-04
same,a·k1 (slope of Phase I),PRMT1 [3]; [sinefungin] 1.5 µM,0.0164 ± 6.01e-05 s⁻¹
same,"b (amplitude, Phase II)",PRMT1 [3]; [sinefungin] 1.5 µM,-0.1776 ± 8.27E-03
same,"k1 (rate constant, Phase I)",PRMT1 [3]; [sinefungin] 1.5 µM,0.05722 ± 1.79E-04 s^-1
same,"k2 (rate constant, Phase II)",PRMT1 [3]; [sinefungin] 1.5 µM,0.000406 ± 2.33e-05 s⁻¹
same,-b·k2 (slope of Phase II),PRMT1 [3]; [sinefungin] 3 µM,4.12e-05 ± 0.000152 s⁻¹
same,"a (amplitude, Phase I)",PRMT1 [3]; [sinefungin] 3 µM,0.2925 ± 5.44E-04
same,a·k1 (slope of Phase I),PRMT1 [3]; [sinefungin] 3 µM,0.0166 ± 5.83e-05 s⁻¹
same,"b (amplitude, Phase II)",PRMT1 [3]; [sinefungin] 3 µM,-4.517
same,"k1 (rate constant, Phase I)",PRMT1 [3]; [sinefungin] 3 µM,0.05659 ± 1.69E-04 s^-1
same,"k2 (rate constant, Phase II)",PRMT1 [3]; [sinefungin] 3 µM,9.13e-06 ± 3.36e-05 s⁻¹
same,-b·k2 (slope of Phase II),PRMT1 [3]; [sinefungin] 7.5 µM,1.42e-05 ± 0.000372 s⁻¹
same,"a (amplitude, Phase I)",PRMT1 [3]; [sinefungin] 7.5 µM,0.2481 ± 5.15E-04
same,a·k1 (slope of Phase I),PRMT1 [3]; [sinefungin] 7.5 µM,0.0148 ± 5.77e-05 s⁻¹
same,"b (amplitude, Phase II)",PRMT1 [3]; [sinefungin] 7.5 µM,-4.223
same,"k1 (rate constant, Phase I)",PRMT1 [3]; [sinefungin] 7.5 µM,0.05968 ± 1.97E-04 s^-1
same,"k2 (rate constant, Phase II)",PRMT1 [3]; [sinefungin] 7.5 µM,3.37e-06 ± 8.82e-05 s⁻¹
same,-b·k2 (slope of Phase II),PRMT1 [3]; [sinefungin] 15 µM,2.66e-06 ± 0.000274 s⁻¹
same,"a (amplitude, Phase I)",PRMT1 [3]; [sinefungin] 15 µM,0.2592 ± 5.43E-04
same,a·k1 (slope of Phase I),PRMT1 [3]; [sinefungin] 15 µM,0.0145 ± 5.77e-05 s⁻¹
same,"b (amplitude, Phase II)",PRMT1 [3]; [sinefungin] 15 µM,-0.5239
same,"k1 (rate constant, Phase I)",PRMT1 [3]; [sinefungin] 15 µM,0.05599 ± 1.89E-04 s^-1
same,"k2 (rate constant, Phase II)",PRMT1 [3]; [sinefungin] 15 µM,5.08e-06 ± 0.000523 s⁻¹
